23 compounds from patent publication US20240308988A1, “Method For Controlling Diamide Resistant Pests and Compounds Therefor” (priority 2021, published 2024) can be followed below.

Experiment [1] concerns Resistant Plutella xylostella R1 (multi-resistant larvae having the G4946E resistance mutation). The experiment in a line: Resistant Plutella xylostella R1 (Diamond back moth) larvicide L3, feeding/contact, sprayed Chinese cabbage leaves. Type of experiment: in vivo. As to conditions: Plutella xylostella, 96 h, read-out: control of the resistant strain of Plutella xylostella R1. How it is done: Resistant Plutella xylostella R1 (Diamond back moth) larvicide L3, feeding/contact Chinese cabbage plants were sprayed with diluted test solutions in an application chamber. Cut off leaves were placed into petri dishes with wetted filter paper and infested 1 day after application with 10 L3 multi-resistant Plutella xylostella larvae having the G4946E resistance mutation.
Samples were assessed 4 days after infestation for mortality and growth regulation.
Chlorantraniliprole was used as standard and a resistance factor of 146 was obtained for this strain.
Plutella xylostella resistant strain R1 originally collected from Taiwan in 2012 that carries the RyR mutation G4946E conferring resistance to diamides. The strain is reared on cabbage plants (Brassica aleracea) and selected approximately every two weeks with chlorantraniliprole.

Experiment [2] concerns Resistant Plutella xylostella R4 (carries the RyR mutation G4946E). The experiment in a line: Resistant Plutella xylostella R4 (Diamond back moth) larvicide L1, feeding/contact, artificial diet in 24-well plates. Type of experiment: in vivo. As to conditions: Plutella xylostella, 192 h, read-out: control of the resistant strain of Plutella xylostella R4. How it is done:
Resistant Plutella xylostella R4 (Diamond back moth) larvicide L1, feeding/contact 24-well microtiter plates with artificial diet were treated with aqueous test solutions prepared from 10′000 ppm DMSO stock solutions by pipetting. After drying, around 30 Plutella eggs were pipetted through a plastic stencil onto a gel blotting paper and the plate was closed with it. The samples were assessed for mortality in comparison to untreated samples 8 days after infestation.
Chlorantraniliprole was used as standard and a resistance factor of 242 was obtained for this strain
Plutella xylostella resistant strain R4 originated in the lab in 2021 from crossing the R1 strain with a lab-reared susceptible P. xylostella strain (SUS). R4 can be reared and tested on artificial diet and also carries the RyR mutation G4946E conferring resistance to diamides. The strain is selected approximately every two weeks with chlorantraniliprole. The following compounds, according to the present invention, gave at least 80% control of the resistant strain of Plutella xylostella R4 at 50 ppm or below: P11, P18, P26, P31, P33, P34, P36, P38, P42, P43, P46, P49, P50, P52, P56, P58, P60, P61, P63, P64, P65, P66, P67, P73, P76, P84, P97, P99, P102, P105.

For experiment [3], the system named is Plutella xylostella (Diamond back moth) ryanodine receptor, containing the G4946E resistance mutation. The experiment in a line: In vitro calcium fluorescence assay (Fluo-8 NW, FDSS) in human embryonic kidney cells expressing the ryanodine receptor. It counts as cell-based. Conditions: table; EC50 (compound)/EC50 (cyantraniliprole); G4946E RyR in HEK cells. How it is done: Human embryonic kidney cells expressing the Plutella xylostella (Diamond back moth) ryanodine receptor, containing the G4946E resistance mutation, are loaded with Fluo-8 No Wash (NW) calcium-sensitive dye which responds by fluorescence to a change in intracellular calcium (e.g. stimulated by activation of ryanodine receptor). Test compounds are added in 10 rates to a 384-well plate containing dye-loaded cells and the fluorescent signal is measured using the Hamamatsu FDSS (Functional Drug Screening system). Dose-response curves are plotted to estimate the EC50. EC50 are normalized against an in-assay reference standard (cyantraniliprole) to address inter-assay variability. The ratio for a given compound is then obtained by the following formula:
REC50=EC50 (compound)/EC50 (cyantraniliprole).

As to `Cc1cc(I)cc(C(N)=O)c1NC(=O)c1cc(OCC(F)(F)F)nn1-c1ncccc1Cl` [Compound P11, N-(2-carbamoyl-4-iodo-6-methyl-phenyl)-2-(3-chloro-2-pyridyl)-5-(2,2,2-trifluoroethoxy)pyrazole-3-carboxamide], the pest or weed control at 50 µg/mL in experiment [1] and in experiment [2] was at least 80% in each case.

On to `Cc1cc(Cl)cc(C(N)=O)c1NC(=O)c1cc(Br)nn1-c1ncccc1Cl` [Compound P24, 5-bromo-N-(2-carbamoyl-4-chloro-6-methyl-phenyl)-2-(3-chloro-2-pyridyl)pyrazole-3-carboxamide], for which, in experiment [3], the “REC50 (Compound of the invention)” value turned out to be 0.18. Further, in experiment [1], the pest or weed control at 50 µg/mL was at least 80%.

With `Cc1cc(Cl)cc(C(N)=O)c1NC(=O)c1cc(C(F)(F)F)nn1-c1ncccc1Cl` [Compound P25, N-(2-carbamoyl-4-chloro-6-methyl-phenyl)-2-(3-chloro-2-pyridyl)-5-(trifluoromethyl)pyrazole-3-carboxamide], in experiment [3], the “REC50 (Compound of the invention)” value was 0.18. For the same compound, the pest or weed control at 50 µg/mL in experiment [1] is at least 80%.

With `Cc1cc(I)cc(C(N)=O)c1NC(=O)c1cc(C(F)(F)F)nn1-c1ncccc1Cl` [Compound P27, N-(2-carbamoyl-4-iodo-6-methyl-phenyl)-2-(3-chloro-2-pyridyl)-5-(trifluoromethyl)pyrazole-3-carboxamide], the “REC50 (Compound of the invention)” value in experiment [3] is given as 0.18. Moreover, the pest or weed control at 50 µg/mL in experiment [1] is at least 80%.

On to `Cc1cc(C#N)cc(C(N)=O)c1NC(=O)c1cc(Br)nn1-c1ncccc1Cl` [Compound P30, 5-bromo-N-(2-carbamoyl-4-cyano-6-methyl-phenyl)-2-(3-chloro-2-pyridyl) pyrazole-3-carboxamide], for which, in experiment [3], the “REC50 (Compound of the invention)” value is 0.39. For the same compound, in experiment [1], the pest or weed control at 50 µg/mL is at least 80%.

Consider `NC(=O)c1cc(Br)cc(Cl)c1NC(=O)c1cc(I)nn1-c1ncccc1Cl` [Compound P36, N-(4-bromo-2-carbamoyl-6-chloro-phenyl)-2-(3-chloro-2-pyridyl)-5-iodo-pyrazole-3-carboxamide], for which the pest or weed control at 50 µg/mL in experiment [1] and in experiment [2] was at least 80% throughout.

For `Cc1cc(Br)cc(C(N)=O)c1NC(=O)c1cc(Cn2ncc(C(F)(F)F)n2)nn1-c1ncccc1Cl` [Compound P38, N-(4-bromo-2-carbamoyl-6-methyl-phenyl)-2-(3-chloro-2-pyridyl)-5-[[4-(trifluoromethyl)triazol-2-yl]methyl]pyrazole-3-carboxamide], the pest or weed control at 50 µg/mL in experiment [1] and in experiment [2] was at least 80% in each case.

Regarding `NC(=O)c1cc(Br)cc(F)c1NC(=O)c1cc(C(F)(F)F)nn1-c1ncccc1Cl` [Compound P42, N-(4-bromo-2-carbamoyl-6-fluoro-phenyl)-2-(3-chloro-2-pyridyl)-5-(trifluoromethyl)pyrazole-3-carboxamide], the pest or weed control at 50 µg/mL in experiment [2] is at least 80%.

On to `Cc1cc(Br)cc(C(N)=O)c1NC(=O)c1cc(Cn2nnc(-c3ccc(C(F)(F)F)cc3)n2)nn1-c1ncccc1Cl` [Compound P43, N-(4-bromo-2-carbamoyl-6-methyl-phenyl)-2-(3-chloro-2-pyridyl)-5-[[5-[4-(trifluoromethyl)phenyl]tetrazol-2-yl]methyl]pyrazole-3-carboxamide], for which the pest or weed control at 50 µg/mL in experiment [1] and in experiment [2] was at least 80% each time.

On to `NC(=O)c1cc(Br)cc(Br)c1NC(=O)c1cc(C(F)(F)F)nn1-c1ncccc1Cl` [Compound P46, 2-(3-chloro-2-pyridyl)-N-(2,4-dibromo-6-carbamoyl-phenyl)-5-(trifluoromethyl)-pyrazole-3-carboxamide], for which, in experiment [3], the “REC50 (Compound of the invention)” value stood at 0.39. Also, the pest or weed control at 50 µg/mL in experiment [2] is at least 80%.

For the compound `NC(=O)c1cc(Cl)cc(Br)c1NC(=O)c1cc(Cn2ncc(C(F)(F)F)n2)nn1-c1ncccc1Cl` [Compound P52, N-(2-bromo-6-carbamoyl-4-chloro-phenyl)-2-(3-chloro-2-pyridyl)-5-[[4-(trifluoromethyl)triazol-2-yl]methyl] pyrazole-3-carboxamide], the pest or weed control at 50 µg/mL in experiment [2] was at least 80%.

As for `Cc1cc(Cl)cc(C(N)=O)c1NC(=O)c1cc(OCC(F)F)nn1-c1ncccc1Cl` [Compound P56, N-(2-carbamoyl-4-chloro-6-methyl-phenyl)-2-(3-chloro-2-pyridyl)-5-(2,2-difluoroethoxy)pyrazole-3-carboxamide], the pest or weed control at 50 µg/mL in experiment [2] was at least 80%.

As to `NC(=O)c1cc(I)cc(Cl)c1NC(=O)c1cc(C(F)(F)F)nn1-c1ncccc1Cl` [Compound P60, N-(2-carbamoyl-6-chloro-4-iodo-phenyl)-2-(3-chloro-2-pyridyl)-5-(trifluoromethyl)pyrazole-3-carboxamide], in experiment [2], the pest or weed control at 50 µg/mL was at least 80%.

For `NC(=O)c1cc(I)cc(Cl)c1NC(=O)c1cc(Br)nn1-c1ncccc1Cl` [Compound P61, 5-bromo-N-(2-carbamoyl-6-chloro-4-iodo-phenyl)-2-(3-chloro-2-pyridyl) pyrazole-3-carboxamide], in experiment [2], the pest or weed control at 50 µg/mL was at least 80%.

Regarding `NC(=O)c1cc(I)cc(F)c1NC(=O)c1cc(C(F)(F)F)nn1-c1ncccc1Cl` [Compound P64, N-(2-carbamoyl-6-fluoro-4-iodo-phenyl)-2-(3-chloro-2-pyridyl)-5-(trifluoromethyl)pyrazole-3-carboxamide], in experiment [3], the “REC50 (Compound of the invention)” value is recorded as 0.69. Moreover, the pest or weed control at 50 µg/mL in experiment [2] is at least 80%.

On to `NC(=O)c1cc(I)cc(F)c1NC(=O)c1cc(Br)nn1-c1ncccc1Cl` [Compound P65, 5-bromo-N-(2-carbamoyl-6-fluoro-4-iodo-phenyl)-2-(3-chloro-2-pyridyl) pyrazole-3-carboxamide], for which, in experiment [2], the pest or weed control at 50 µg/mL was at least 80%.

For `Cc1cc(C#N)cc(C(N)=O)c1NC(=O)c1cc(I)nn1-c1ncccc1Cl` [Compound P66, N-(2-carbamoyl-4-cyano-6-methyl-phenyl)-2-(3-chloro-2-pyridyl)-5-iodo-pyrazole-3-carboxamide], the pest or weed control at 50 µg/mL in experiment [2] is at least 80%.

Turning to `Cc1cc(Cl)cc(C(N)=O)c1NC(=O)c1cc(Br)nn1-c1ncccc1Br` [Compound P73, 5-bromo-2-(3-bromo-2-pyridyl)-N-(2-carbamoyl-4-chloro-6-methyl-phenyl)pyrazole-3-carboxamide], in experiment [2], the pest or weed control at 50 µg/mL is at least 80%.

Consider `Cc1cc(Cl)cc(C(N)=O)c1NC(=O)c1cc(Cn2nnc(-c3ccc(F)cc3)n2)nn1-c1ncccc1Cl` [Compound P84, N-(2-carbamoyl-4-chloro-6-methyl-phenyl)-2-(3-chloro-2-pyridyl)-5-[[5-(4-fluorophenyl)tetrazol-2-yl]methyl] pyrazole-3-carboxamide], for which the pest or weed control at 50 µg/mL in experiment [2] was at least 80%.

Turning to `Cc1cc(Cl)cc(C(N)=O)c1NC(=O)c1cc(Cn2nnc(-c3cccc(C(F)(F)F)c3)n2)nn1-c1ncccc1Cl` [Compound P97, N-(2-carbamoyl-4-chloro-6-methyl-phenyl)-2-(3-chloro-2-pyridyl)-5-[[5-[3-(trifluoromethyl)phenyl]tetrazol-2-yl]methyl]pyrazole-3-carboxamide], in experiment [2], the pest or weed control at 50 µg/mL was at least 80%.

`Cc1cc(-c2nnn(Cc3cc(C(=O)Nc4c(C)cc(Cl)cc4C(N)=O)n(-c4ncccc4Cl)n3)n2)ccc1Cl` [Compound P99, N-(2-carbamoyl-4-chloro-6-methyl-phenyl)-5-[[5-(4-chloro-3-methyl-phenyl)tetrazol-2-yl]methyl]-2-(3-chloro-2-pyridyl)pyrazole-3-carboxamide]: in experiment [2], the pest or weed control at 50 µg/mL was at least 80%.

Take `Cc1cc(Cl)cc(C(N)=O)c1NC(=O)c1cc(Cn2nnc(-c3ccc(F)c(Br)c3)n2)nn1-c1ncccc1Cl` [Compound P102, 5-[[5-(3-bromo-4-fluoro-phenyl)tetrazol-2-yl]methyl]-N-(2-carbamoyl-4-chloro-6-methyl-phenyl)-2-(3-chloro-2-pyridyl)pyrazole-3-carboxamide]: the pest or weed control at 50 µg/mL in experiment [2] is at least 80%.

For the compound `Cc1cc(Cl)cc(C(N)=O)c1NC(=O)c1cc(Cn2nnc(-c3ccccc3)n2)nn1-c1ncccc1Cl` [Compound P105, N-(2-carbamoyl-4-chloro-6-methyl-phenyl)-2-(3-chloro-2-pyridyl)-5-[(5-phenyltetrazol-2-yl)methyl] pyrazole-3-carboxamide], the pest or weed control at 50 µg/mL in experiment [2] was at least 80%.
